Measured values taken from ChEMBL document CHEMBL5244223, “l,8-Naphthalimide based DNA intercalators and anticancer agents. A systematic review from 2007 to 2017” (Eur J Med Chem, 2018).
Converted amounts (≈) assume the structure as drawn. Each block holds one compound with its values, some of them ahead of it.

Key:
SK-MEL-28 = assay: Growth inhibition against human SK-MEL-28 cells at 10 uM incubated for 48 hrs by sulforhodamine B reagent assay; type: functional; conditions: read-out: GI
Calf thymus DNA [1] = assay: Binding affinity to calf thymus DNA assessed as DNA intercalation by measuring change in melting temperature by thermal denaturation assay; type: nucleic-acid assay; conditions: Bos taurus
HeLa [2] = assay: Antiproliferative activity against human HeLa cells assessed as inhibition of cell growth; type: functional, cell-based
A549 [3] = assay: Antiproliferative activity against human A549 cells assessed as inhibition of cell growth; type: functional, cell-based
HL-60 [4] = assay: Antiproliferative activity against human HL-60 cells assessed as inhibition of cell growth; type: functional, cell-based
HeLa [5] = assay: Cytotoxicity against human HeLa cells assessed as inhibition of cell growth by MTT assay; type: functional, cell-based
MCF7 [6] = assay: Cytotoxicity against human MCF7 cells assessed as inhibition of cell growth by MTT assay; type: functional, cell-based
SGC-7901 = assay: Cytotoxicity against human SGC-7901 cells assessed as inhibition of cell growth by MTT assay; type: functional, cell-based
Calf thymus DNA [7] = assay: Binding affinity to calf thymus DNA assessed as DNA intercalation by measuring binding constant by fluorescence spectroscopic assay; type: nucleic-acid assay; conditions: Bos taurus
A549 [8] = assay: Cytotoxicity against human A549 cells assessed as inhibition of cell growth by MTT assay; type: functional, cell-based
[9] = Antioxidant activity assessed as hydrogen peroxide free radical scavenging activity incubated for 10 mins; type: functional
Calf thymus DNA [10] = assay: Binding affinity to calf thymus DNA assessed as binding constant incubated for 30 mins by fluorescence based EtBr-displacement assay; type: nucleic-acid assay; conditions: Bos taurus
[11] = Antioxidant activity assessed as DPPH radical scavenging activity incubated for 30 mins by UV-Vis spectrophotometer assay; type: functional
Calf thymus DNA [12] = assay: Binding affinity to calf thymus DNA assessed as DNA intercalation by measuring change in melting temperature by thermal denaturation assay based UV-Vis spectrophotometric analysis; type: nucleic-acid assay; conditions: Bos taurus
MCF7 [13] = assay: Antiproliferative activity against human MCF7 cells assessed as inhibition of cell proliferation; type: functional, cell-based
HT-29 = assay: Antiproliferative activity against human HT-29 cells assessed as inhibition of cell proliferation; type: functional, cell-based
MCF7 [14] = assay: Antiproliferative activity against human MCF7 cells assessed as inhibition of cell proliferation incubated for 72 hrs by MTT assay; type: functional, cell-based; conditions: MCF7, 72 h
A549 [15] = assay: Antiproliferative activity against human A549 cells assessed as inhibition of cell proliferation incubated for 72 hrs by MTT assay; type: functional, cell-based; conditions: A549, 72 h
Jurkat = assay: Antiproliferative activity against human Jurkat cells assessed as inhibition of cell proliferation incubated for 72 hrs by MTT assay; type: functional, cell-based
HCT-116 = assay: Cytotoxicity against human HCT-116 cells assessed as inhibition of cell growth incubated for 24 hrs by XTT assay; type: functional, cell-based; conditions: HCT-116, 24 h
PANC-1 = assay: Cytotoxicity against human PANC-1 cells assessed as inhibition of cell growth incubated for 24 hrs by XTT assay; type: functional, cell-based; conditions: PANC-1, 24 h
HeLa [16] = assay: Antiproliferative activity against human HeLa cells assessed as inhibition of cell proliferation incubated for 48 hrs by MTT assay; type: functional, cell-based
MCF7 [17] = assay: Antiproliferative activity against human MCF7 cells assessed as inhibition of cell proliferation incubated for 48 hrs by MTT assay; type: functional, cell-based; conditions: MCF7, 48 h
SMMC-7721 = assay: Antiproliferative activity against human SMMC-7721 cells assessed as inhibition of cell proliferation incubated for 48 hrs by MTT assay; type: functional, cell-based; conditions: SMMC-7721, 48 h
Calf thymus DNA [18] = assay: Binding affinity to calf thymus DNA assessed as binding constant by UV-Vis spectroscopic analysis; type: nucleic-acid assay; conditions: Bos taurus
MCF7 [19] = assay: Cytotoxicity against human MCF7 cells assessed as inhibition of cell growth incubated for 24 hrs by CCK-8 assay; type: functional, cell-based; conditions: MCF7, 24 h
U-937 = assay: Cytotoxicity against human U-937 cells assessed as inhibition of cell growth incubated for 96 hrs by MTT assay; type: functional, cell-based; conditions: U-937, 96 h
HL-60 [20] = assay: Cytotoxicity against human HL-60 cells assessed as inhibition of cell growth incubated for 96 hrs by MTT assay; type: functional, cell-based; conditions: HL-60, 96 h
Calf thymus DNA [21] = assay: Binding affinity to calf thymus DNA assessed as binding constant by fluorescence based EtBr-displacement based UV-Vis spectroscopic analysis; type: nucleic-acid assay; conditions: Bos taurus

SMILES: CN1CCN(c2ccc3nc(-c4ccc(OCCCCN5CCN(CCCCN6C(=O)c7cccc8cccc(c78)C6=O)CC5)cc4)[nH]c3c2)CC1
inhibition of growth at 10 µM (SK-MEL-28): 50%

SMILES: CCOc1cc(/C=N/N2C(=O)c3cccc4cccc(c34)C2=O)ccc1O
IC50 [9]: 1.06 mg/mL (≈ 2.94 mM)
Kb (Calf thymus DNA [10]): 3.33 10^4/M
IC50 [11]: 1.28 mg/mL (≈ 3.55 mM)

SMILES: O=C1c2cccc3cccc(c23)C(=O)N1CCCCN1CCN(CCCCOc2ccc(-c3nc4ccc(N5CCOCC5)cc4[nH]3)cc2)CC1
inhibition of growth at 10 µM (SK-MEL-28): 50%

SMILES: COS(=O)(=O)CCCCSc1ccc2c3c(cccc13)C(=O)N(CCN(C)C)C2=O
IC50 (HCT-116): 11.7 µM
IC50 (PANC-1): 11.7 µM

SMILES: O=C1c2cccc3cccc(c23)C(=O)N1CCCCCN1CCN(CCCCCOc2ccc(-c3nc4ccc(N5CCOCC5)cc4[nH]3)cc2)CC1
inhibition of growth at 10 µM (SK-MEL-28): 50%

SMILES: CN(C)CCCN1C(=O)c2cccc3c(NCCNC(=N)N)ccc(c23)C1=O
IC50 (MCF7 [19]): 10.4 µM

SMILES: O=C1c2cccc3c([N+](=O)[O-])ccc(c23)C(=O)N1CCCCl
IC50 (U-937): 300 nM
IC50 (HL-60 [20]): 300 nM

SMILES: Cc1ccc(-c2cc[n+]3c(c2)-c2cccc[n+]2CC3)cc1
K (Calf thymus DNA [21]): 2.8 10^6/M

Continued, in another order:

ΔTm (Calf thymus DNA [1]): 11.8 °C
IC50 (HeLa [2]): 13.1 µM
IC50 (A549 [3]): 13.1 µM
IC50 (HL-60 [4]): 13.1 µM
SMILES: CN(C)CCN1C(=O)c2cccc3c(NCCNCCNCCN)ccc(c23)C1=O

Kb (Calf thymus DNA [7]): 1.8 10^4/M
SMILES: CN(C)CCN1C(=O)c2cccc3c(N4CC[C@@H](O)C4)ccc(c23)C1=O
IC50 (HeLa [5]): 870 nM
IC50 (MCF7 [6]): 870 nM
IC50 (SGC-7901): 870 nM
IC50 (A549 [8]): 870 nM

ΔTm (Calf thymus DNA [12]): 3 °C
IC50 (MCF7 [13]): 4.6 µM
IC50 (HT-29): 4.6 µM
SMILES: C[n+]1ccn(CCCN2C(=O)c3cccc4cccc(c34)C2=O)c1

Kb (Calf thymus DNA [7]): 1.8 10^4/M
SMILES: CN(C)CCN1C(=O)c2cccc3c(N4CCC[C@@H]4CO)ccc(c23)C1=O
IC50 (HeLa [5]): 870 nM
IC50 (MCF7 [6]): 870 nM
IC50 (SGC-7901): 870 nM
IC50 (A549 [8]): 870 nM

Kb (Calf thymus DNA [7]): 1.8 10^4/M
SMILES: CN(C)CCN1C(=O)c2cccc3c(N4CCC[C@H]4CO)ccc(c23)C1=O
IC50 (HeLa [5]): 870 nM
IC50 (MCF7 [6]): 870 nM
IC50 (SGC-7901): 870 nM
IC50 (A549 [8]): 870 nM

IC50 [9]: 1.17 mg/mL (≈ 3.38 mM)
Kb (Calf thymus DNA [10]): 2.25 10^4/M
IC50 [11]: 1.43 mg/mL (≈ 4.13 mM)
SMILES: COc1cccc(/C=N/N2C(=O)c3cccc4cccc(c34)C2=O)c1O

IC50 (MCF7 [14]): 5.67 µM
IC50 (A549 [15]): 5.67 µM
IC50 (Jurkat): 5.58 µM
SMILES: O=C1c2cccc3cccc(c23)C(=O)N1CC/N=C/c1ccccn1

Kb (Calf thymus DNA [7]): 1.8 10^4/M
SMILES: CN(C)CCN1C(=O)c2cccc3c(N4CC[C@H](O)C4)ccc(c23)C1=O
IC50 (HeLa [5]): 870 nM
IC50 (MCF7 [6]): 870 nM
IC50 (SGC-7901): 870 nM
IC50 (A549 [8]): 870 nM

IC50 (HeLa [16]): 300 nM
IC50 (MCF7 [17]): 300 nM
IC50 (SMMC-7721): 300 nM
Kb (Calf thymus DNA [18]): 5.1 10^5/M
SMILES: CN(C)CCN1C(=O)c2cccc3cc(-n4ccnn4)cc(c23)C1=O
